Results: patent US11998008B2, “Pesticides and methods of controlling pests” (The State of Israel, Ministry of Agriculture & Rural …, priority 2017, dated 2024)

Columns and labels:
[1] = system: lettuce seedling strain Raviv; conditions: in vivo, 3 days
Description: (§2) An experiment in a larger scale was performed in loam soil in which the seedling were planted directly in the treated plot. The soil was treated with 0, 25, 50, 100, 200, 400, 800, and 1,600 ppm of emulsion of trans-2-octenal. The compound was applied using the irrigation system. A day later, tomato seedling strains Ikram and Abigail and lettuce seedling strain Raviv (10 seedlings each) were planted into the treated soil of each concentration. Eleven days later, the number of viable seedlings was counted.

tomato strain Ikram = conditions: in vivo, 3 days
Description: as §2

[2] = system: F. oxysporum f. sp. radicis-cucumerium; experiment: Fungicidal activity assay on PDA in sealed Petri dish (growth inhibition and mortality); type: cell-based, Fusarium oxysporum f. sp. radicis-cucumerinum; conditions: Fusarium oxysporum, NA + number = still viable in the highest concentration tested (given as >), read-out: M - Mortality, minimal concentration that killed the fungus
Description: (§1) Each compound was placed on a disconnected cover from an Eppendorf tube that was located in the middle of the Petri dish and a hyphae-containing plug of each test fungus was added to the culture plate. In exemplary procedures, the tested compounds trans-2-heptenal, trans-2-octenal were tested in comparison with octanal, trans-2-octen-1-ol, methyl trans-2-octenoate, trans-3-octen-2-one and 3-pentenenitrile. In addition, cyclic ketones as 2-cyclopenten-1-one, 2-cyclohexen-1-one and α-tetralone were also examined. Then, the culture plate was sealed with parafilm and incubated at room-temperature for 2 days, after which the growth of the test fungi in those dishes was compared with those in the test compound-free control dishes. At the end of the assay, the viability of each test fungus was evaluated by transferring inoculum plugs to fresh PDA plates and observing the growth that developed within the next 2 days. The test fungi used in this study included but were not limited to Alternaria alternata, Botrytis cinerea, Sclerotinia rolfsii, Penicillium digitatum, Fusarium oxysporum f. sp. radicis-cucumerinum and Rhizoctonia solani.

peanut seeds = experiment: Phytotoxic effect on peanut seeds in pots of loam soil; type: in vivo; conditions: 16 days; for Number of germinated seeds: 9 seeds sown
Description: The phytotoxic effect of 2-cyclohexen-1-one was also examined on peanut seeds. The concentrations tested were: 0, 10, 20, and 40 ppm, 3 pots for each concentration. After mixing the loam soil with 2-cyclohexne-1-one, three peanut seeds were sown in each pot and let to grow for 16 days.

tomato strain Kilates = conditions: in vivo, 3 days
Description: The soil was treated with 0, 400 and 800 ppm of emulsion of 2-cyclohexene-1-one. The compound was applied using the irrigation system. A day later, tomato seedling strains Ikram, and Kilates and lettuce seedling strain Raviv (10 seedlings each) were planted into the treated soil of each concentration. Three (3) days later, the number of seedlings was counted.

S. rolfsii = experiment: Fungicidal activity assay on PDA in sealed Petri dish (growth inhibition and mortality); type: cell-based, Sclerotinia rolfsii; conditions: Agroathelia rolfsii; S. rolfsii; NA + number = still viable in the highest concentration tested (given as >); read-out: M - Mortality, minimal concentration that killed the fungus
Description: as §1

R. solani = experiment: microbe, parasite or virus in culture; type: cell-based; conditions: Rhizoctonia solani, read-out: M - Mortality, minimal concentration that killed the fungus
Description: as §1

Meloidogyne javanica J2s = experiment: Greenhouse nematocidal experiment with susceptible tomato plants in inoculated loam; type: in vivo; conditions: tomato harvested after 8 weeks
Description: The activity of trans-2-octenal against nematodes was examined in a greenhouse experiment using stage 2 juveniles of the rot-knot nematode Meloidogyne javanica. […] After 2 days, the inoculated soil was treated with 30 ppm of trans-2-octenal and incubated for additional 5 days. Then, susceptible tomato plants were planted, and allowed to grow in a growing chamber for 8 weeks. At the end of the experiment, the plants, along with their root systems, were harvested from their pots and evaluated for incidence of root galling. In addition, M. javanica eggs were extracted from each root and counted, and the number of eggs per gram root was calculated. As shown in FIGS. 14A-14D, trans-2-octenal reduced the galling index and the number of eggs per gram root. […] The activity of 2-cyclohexen-1-one against nematodes was examined in a greenhouse experiment using stage 2 juveniles of the rot-knot nematode Meloidogyne javanica. The experiment was performed as described for trans-2-octenal. […] After 2 days, the inoculated soil was treated with 15 or 31 ppm of 2-cyclohexen-1-one and incubated for additional 5 days. Then, susceptible tomato plants were planted, and allowed to grow in a growing chamber for 8 weeks. At the end of the experiment, the plants, along with their root systems, were harvested from their pots and evaluated for incidence of root galling. In addition, M. javanica eggs were extracted from each root and counted, and the number of eggs per gram root was calculated.

test fungi = experiment: Fungicidal activity assay on PDA, summaries over the test fungi; type: cell-based; conditions: comparison within the series
Description: as §1, with “In exemplary procedures, the fungicidial activity of the compounds listed in Table 2 were examined by activity assays as follow: Petri dishes, 90 mm in diameter, with air volume of 80 mL, contained 10-12 mL of growth medium comprising potato dextrose agar (PDA) (Acumedia, Lansing, Michigan, USA) amended with tetracycline at 12 μg/mL. Each” for “Each”

[3] = system: tomato seedlings strain Ikram; experiment: Phytotoxic effect on tomato seedlings in pots of pretreated loam soil; type: in vivo; conditions: 9 days
Description: The phytotoxic effect of 2-cyclohexen-1-one in pots was examined on tomato seedlings strain Ikram. Pots (9-10 repetitions) were filled with 500 g of loam soil pretreated with 2-cyclohexen-1-one at final concentration of 0, 50, and 60 ppm. Then, tomato seedling was planted in each pot and allowed to grow for 9 days. The phytotoxic effect was evaluated by counting the number of live seedling and measuring their heights.

Question: What does the source list for `O=C1C=CCCC1` [2-cyclohexen-1-one]?
Answer: concentration at which phytotoxic effect was displayed [1]: 800 ppm; concentration at which phytotoxic effect occurred (tomato strain Ikram): 400 ppm; MFC [2]: > 25 µg/mL; % Viability (peanut seeds; 10 ppm): 89%; Number of germinated seeds (peanut seeds; 10 ppm): 8; % Viability (peanut seeds; 20 ppm): 100%; Number of germinated seeds (peanut seeds; 20 ppm): 9; % Viability (peanut seeds; 40 ppm): 89%; Number of germinated seeds (peanut seeds; 40 ppm): 8; concentration at which phytotoxic effect occurred (tomato strain Kilates): 400 ppm; MFC (S. rolfsii): > 25 µg/mL; MFC (R. solani): > 25 µg/mL; concentration sufficient to reduce the galling index and the number of eggs per gram root (Meloidogyne javanica J2s): 15 ppm; fungicidal activity in words (test fungi): fungicidal activity, to some extent; % Viability ([3]; 50 ppm): 100%; Seedling height (Mean ± SD) ([3]; 50 ppm): 21 ± 3 cm; % Viability ([3]; 60 ppm): 67%; Seedling height (Mean ± SD) ([3]; 60 ppm): 16 ± 2 cm; concentration at which phytotoxic effect was obtained ([3]; of 0, 50 and 60 ppm tested): 60 ppm
